Square brackets hold non-standard residues; d marks the D form. Ends that are not written are not given here. pGlu = O=C1CC[C@@H](C(=O)O)N1
Tested on: panelists
Experiment: Attribute perception scores of flavor enhancers in solution (Example 6)
Assay type: in vivo, human
Parameters: key to Metallic / Numbing / Atringent / Salt / Sweet / Sour / Bitter / Umami / Sour, mean evaluation score in solution / Numbing, mean evaluation score in solution / Astringent / Umami FF: 15-point intensity scale, 0 = none, 15 = very strong
Conditions: for Astringent / Bitter / Flinty/Mineral / Metallic / Numbing / Salt / Sour / Sweet / Umami / Umami FF / Atringent / Mineral/Flinty / Umami/brothy: solution
Description: Descriptive attributes (e.g., taste, flavor and chemical feeling factors) of three use levels of pGlu-Cys (FE-35), pGlu-Cys-Gly (FE-36), pGlu-Cys-Cys (FE-37), pGlu-Cys-Val (FE-38) and pGlu-Val-Cys (UE-30) flavor composition peptides were determined. The three use levels were as follows: 1.0 ppb, 10.0 ppb and 100.0 ppb.
Data was collected for the attributes of the product in-mouth for the use levels according to the following protocol: • The samples were analyzed for flavor by six to nine members of a panel, trained and experienced in flavor evaluation using the Spectrum™ method. Samples were evaluated across multiple panel sessions. • The strength of each attribute was rated on a 15-point scale, where 0=none and 15=very strong. • This scale incorporates the ability to use tenths of a point and therefore has the potential of 150 scale differentiations. • The scale may be expanded beyond 15 points to include extreme ratings if necessary.
A summary of the concentrations of NaCl, water and flavor composition peptides in the solution samples is described in table 24.
The panelists evaluated each sample for the attributes described by table 25.

[1] = 1.0 to 100 ppb, listed as FE 38
[2] = 10.0 ppb, mean evaluation score
[3] = 100.0 ppb, mean evaluation score
[4] = Concentration 1, MAX, 15-point scale
[5] = Concentration 1, MEAN, 15-point scale
[6] = Concentration 1, MIN, 15-point scale
[7] = Concentration 10, MAX, 15-point scale
[8] = Concentration 10, MEAN, 15-point scale
[9] = Concentration 10, MIN, 15-point scale
[10] = Concentration 100, MAX, 15-point scale
[11] = Concentration 100, MEAN, 15-point scale
[12] = Concentration 100, MIN, 15-point scale

[pGlu]-Cys-Val [FE-38]
Mineral/Flinty aromatic in solution as the concentration increases (1.0 to 100 ppb): increases very slightly | Salt perception level in solution as the concentration increases (1.0 to 100 ppb): increase very slightly in-mouth at 10 ppb | Umami aromatic in solution as the concentration increases (1.0 to 100 ppb): increase very slightly in-mouth at 10 ppb | Umami feeling factor in solution as the concentration increases (1.0 to 100 ppb): shows no distinct pattern | Mineral/Flinty aromatic in solution as the concentration increases [1]: increase very slightly | Salt perception level in solution as the concentration increases [1]: increase very slightly | Umami aromatic in solution as the concentration increases [1]: increase very slightly | Astringent (1.0 ppb, mean evaluation score): 0.0 | Bitter (1.0 ppb, mean evaluation score): 0.0 | Flinty/Mineral (1.0 ppb, mean evaluation score): 1.0 | Metallic (1.0 ppb, mean evaluation score): 0.0 | Numbing (1.0 ppb, mean evaluation score): 0.0 | Salt (1.0 ppb, mean evaluation score): 3.1 | Sour (1.0 ppb, mean evaluation score): 0.0 | Sweet (1.0 ppb, mean evaluation score): 0.0 | Umami (1.0 ppb, mean evaluation score): 0.2 | Umami FF (1.0 ppb, mean evaluation score): 0.7 | Astringent [2]: 0.0 | Bitter [2]: 0.2 | Flinty/Mineral [2]: 1.1 | Metallic [2]: 0.0 | Numbing [2]: 0.0 | Salt [2]: 3.7 | Sour [2]: 0.0 | Sweet [2]: 0.2 | Umami [2]: 0.5 | Umami FF [2]: 1.8 | Astringent [3]: 0.0 | Bitter [3]: 0.2 | Flinty/Mineral [3]: 1.3 | Metallic [3]: 0.0 | Numbing [3]: 0.0 | Salt [3]: 3.7 | Sour [3]: 0.0 | Sweet [3]: 0.2 | Umami [3]: 0.5 | Umami FF [3]: 1.7 | Atringent [4]: 0.0 | Bitter [4]: 0.0 | Metallic [4]: 0.0 | Mineral/Flinty [4]: 1.5 | Numbing [4]: 0.0 | Salt [4]: 3.5 | Sour [4]: 0.0 | Sweet [4]: 0.0 | Umami [4]: 1.0 | Umami/brothy [4]: 1.0 | Atringent [5]: 0.0 | Bitter [5]: 0.0 | Metallic [5]: 0.0 | Mineral/Flinty [5]: 1.0 | Numbing [5]: 0.0 | Salt [5]: 3.1 | Sour [5]: 0.0 | Sweet [5]: 0.0 | Umami [5]: 0.7 | Umami/brothy [5]: 0.2 | Atringent [6]: 0.0 | Bitter [6]: 0.0 | Metallic [6]: 0.0 | Mineral/Flinty [6]: 0.5 | Numbing [6]: 0.0 | Salt [6]: 2.8 | Sour [6]: 0.0 | Sweet [6]: 0.0 | Umami [6]: 0.0 | Umami/brothy [6]: 0.0 | Atringent [7]: 0.0 | Bitter [7]: 0.8 | Metallic [7]: 0.0 | Mineral/Flinty [7]: 1.5 | Numbing [7]: 0.0 | Salt [7]: 4.0 | Sour [7]: 0.0 | Sweet [7]: 1.0 | Umami [7]: 3.0 | Umami/brothy [7]: 1.0 | Atringent [8]: 0.0 | Bitter [8]: 0.2 | Metallic [8]: 0.0 | Mineral/Flinty [8]: 1.1 | Numbing [8]: 0.0 | Salt [8]: 3.7 | Sour [8]: 0.0 | Sweet [8]: 0.2 | Umami [8]: 1.8 | Umami/brothy [8]: 0.5 | Atringent [9]: 0.0 | Bitter [9]: 0.0 | Metallic [9]: 0.0 | Mineral/Flinty [9]: 0.8 | Numbing [9]: 0.0 | Salt [9]: 3.0 | Sour [9]: 0.0 | Sweet [9]: 0.0 | Umami [9]: 0.0 | Umami/brothy [9]: 0.0 | Atringent [10]: 0.0 | Bitter [10]: 0.8 | Metallic [10]: 0.0 | Mineral/Flinty [10]: 1.5 | Numbing [10]: 0.0 | Salt [10]: 4.0 | Sour [10]: 0.0 | Sweet [10]: 1.0 | Umami [10]: 3.8 | Umami/brothy [10]: 1.0 | Atringent [11]: 0.0 | Bitter [11]: 0.2 | Metallic [11]: 0.0 | Mineral/Flinty [11]: 1.3 | Numbing [11]: 0.0 | Salt [11]: 3.7 | Sour [11]: 0.0 | Sweet [11]: 0.2 | Umami [11]: 1.7 | Umami/brothy [11]: 0.5 | Atringent [12]: 0.0 | Bitter [12]: 0.0 | Metallic [12]: 0.0 | Mineral/Flinty [12]: 0.8 | Numbing [12]: 0.0 | Salt [12]: 3.5 | Sour [12]: 0.0 | Sweet [12]: 0.0 | Umami [12]: 0.5 | Umami/brothy [12]: 0.0

— patent US10856562B2, “Flavor composition and edible compositions containing same” (MARS, INCORPORATED, priority 2013, dated 2020)
